Reference: patent US9696296B2, “Targeting c-Rel O-GlcNAcylation and uses thereof” (California Institute of Technology, priority 2013, dated 2017)

What was measured:
Type in all cases: cell-based, human
c-Rel [1] = assay: c-Rel O-GlcNAcylation, immunoprecipitation and anti-O-GlcNAc western blot; details: Jurkat cells, 30 mM glucose, PUGNAc 100 μM for 3 hrs
[2] = test system: c-Rel binding CD28RE region; assay: Electrophoretic mobility shift assay, anti-CD3/CD28-induced binding of nuclear extracts to CD28RE probe
Description: Jurkat cells were cultured at 1.5×10^6 cells/ml in 6-well plates or 10 cm plates in the presence of 1 μg/ml of Doxycycline for 22 hours for the induction of FLAG-c-Rel. Cells were stimulated for the indicated time points (3 hours) with plate bound anti-CD3 and anti-CD28 (2 μg/ml each). […] PLCγ, Lamin and SP1 were used as loading controls. Cytoplasmic and nuclear extracts were also prepared after culturing in the presence of 1 μg/ml of Doxycycline for 22 hours for the induction of FLAG-c-Rel. FLAG-c-Rel was immunoprecipitated and analyzed with anti-O-GlcNAc antibody.
Nuclear protein extracts were prepared as described^7. Nuclear extracts corresponding to 4-6 μg of protein were tested for DNA binding using the probes containing c-Rel binding CD28RE region and p65 binding IL2-κB region. OCT1 probe was used as a control. In the probe containing CD28RE-NF-IL-2B AP-1 region, the AP site was mutated as previously described to restrict the protein binding only to the CD28RE site in our assays. (Shapiro et al. Mol Cell Biol 17:4051-4058 (1997).) Lysates were incubated with [^32P] γATP labeled probe in the binding buffer (Tris-Cl 10 mM, pH 7.5, Nacl 50 mM, glycerol 4%, MgCl2 1 mM, EDTA 0.1 mM, poly(dI-dC) 50 μg/ml, and 0.1 mM DTT) for 20 min at room temperature. […] Samples were separated in 5% non-denaturing polyacrylamide gel and analyzed by autoradiography.

Jurkat cells = assay: anti-CD3/CD28-induced c-Rel dependent gene expression by quantitative real time PCR
Description: Jurkat cells were treated with PUGNAc (100 μM) for 12 hours and then treated with plate bound anti-CD3/CD28 (2 μg/ml) for 3 hours. Some cells were additionally treated overnight with Streptozotocin (STZ, 2 mM) prior to PUGNAc treatment. Gene expression was analyzed by quantitative real time PCR. In other cases, Jurkat T-REx cell clones expressing wild-type and mutant c-Rel were induced with doxycycline for 22 hrs, treated with PUGNAc overnight and then treated with anti-CD3/C28 for 3 hrs.
DNA-free RNA was prepared using the RNeasy Mini Kit according to the manufacturer's instructions (Qiagen). cDNA was synthesized from 0.5-1.0 μg total RNA using random hexamers (Promega) and Superscript III reverse transcriptase first-strand synthesis kit (Invitrogen, Carlsbad, Calif.). Quantitative real time PCR using cDNA corresponding to 20-60 ng of total RNA and Taqman Gene Expression Assays (Applied Biosystems, Foster City, Calif.) was performed in a Real-Time PCR machine (Realplex, Eppendorf) according to the manufacturer's instructions. The results obtained for individual genes were normalized to the expression of TFR for human genes and UBE2D2 for mouse genes. Quantitative real time PCR (qPCR) was performed at least in three independent experiments in triplicates and the relative levels of indicated genes were calculated with respect to the expression of transferrin receptor. Statistical significance was determined by two-tailed unpaired Student's t test and represented as mean±SEM.

Jurkat T-REx cell clones = assay: TNF-induced NF-κB-dependent gene expression by qPCR; details: TNF 100 ng/ml 3 hrs, PUGNAc overnight
Description: Cells were treated with TNF (100 ng/ml) for 3 hrs. Jurkat T-REx cell clones expressing wild-type and mutant c-Rel were induced with doxycycline for 22 hrs, treated with PUGNAc overnight and then treated with anti-CD3/C28 for 3 hrs. Quantitative real time PCR (qPCR) was performed at least in three independent experiments in triplicates and the relative levels of indicated genes were calculated with respect to the expression of transferrin receptor. Statistical significance was determined by two-tailed unpaired Student's t test and represented as mean±SEM.

c-Rel [3] = assay: TNF-induced nuclear translocation assay, c-Rel; details: Jurkat cells, PUGNAc overnight then TNF
Description: (§1) Jurkat cells were treated overnight with PUGNAc and then with TNF. Nuclear extracts were analyzed for c-Rel and p65 nuclear translocation. p105 was used as the loading control.

p65 = assay: TNF-induced nuclear translocation assay, p65; details: Jurkat cells, PUGNAc overnight then TNF
Description: as §1

[4] = Jurkat cells, PUGNAc 100 μM 12 hours, then anti-CD3/CD28 3 hours

`CC(=O)N[C@H]1/C(=N/OC(=O)Nc2ccccc2)O[C@H](CO)[C@@H](O)[C@@H]1O` [PUGNAc, O-(2-acetamido-2-deoxy-D-glucopyranosylidene)amino-N-phenylcarbamate] was tested, and the “O-GlcNAcylation of c-Rel” value (c-Rel [1]) was “further enhanced the O-GlcNAcylation of c-Rel”, the “anti-CD3/CD28-induced CD28RE DNA binding” value ([2]; PUGNAc and high glucose treatment) was “significantly increased” and the “expression of c-Rel-dependent genes in wild-type versus mutant c-Rel cells” value (Jurkat cells; Jurkat T-REx clones expressing wild-type or S350A c-Rel, PUGNAc overnight, anti-CD3/CD28 3 hrs) was “significantly potentiated the expression of c-Rel-dependent genes only in wild-type c-Rel expressing cells”. For the same compound, the “anti-CD3/CD28-induced expression of GMCSF” value (Jurkat cells; [4]) was “significantly potentiated”, the “anti-CD3/CD28-induced expression of IL-2” value (Jurkat cells; [4]) was “significantly potentiated” and the “TCR-induced expression of A20 and IκBα” value (Jurkat cells; PUGNAc treatment) was “did not observe any effect”. For the same compound, the “TNF-induced expression of A20” value (Jurkat T-REx cell clones) was “neither affected”, the “TNF-induced expression of IκBα” value (Jurkat T-REx cell clones) was “neither affected” and the “TNF induced c-Rel nuclear translocation” value (c-Rel [3]) was “no effect”. The “TNF-induced nuclear p65 levels” value (p65) was “decreased”.
With `[N-]=[N+]=CC(=O)CC[C@H](N)C(=O)O` [DON, 6-diazo-5-oxo-L-norleucine] the “anti-CD3/CD28-induced CD28RE binding of nuclear extracts” value ([2]; wild-type c-Rel expressing Jurkat cells, DON overnight) was “decreased”.
With `CN(N=O)C(=O)N[C@H]1C(O)O[C@H](CO)[C@@H](O)[C@@H]1O` (mixture of isomers) [Streptozotocin] the “anti-CD3/CD28-induced c-Rel-dependent gene expression (GMCSF)” value (Jurkat cells; STZ 2 mM overnight) was “enhanced”.
